From PubChem BioAssay AID248 (DTP/NCI, 2004)
Toxic doses and inconclusive results are not listed. Cut-off read from the data, not from the text of the source: active = T/C of 150% or more; inactive = T/C below 125%.

System: L1210 leukemia ip in BDF1 mice, survival T/C
Assay: NCI In Vivo Anticancer Drug Screen. Data for tumor model L1210 Leukemia (intraperitoneal) in B6D2F1 (BDF1) mice
Settings: endpoint: mean survival time, higher = longer survival
Summary of the method: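 Tumor cells were implanted, animals were treated, and survival was followed. The result divides the treated measurement by the vehicle-control measurement.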

[1] = dose: 50.0 mg/kg/injection, schedule: Q01DX001 (ip), vehicle: saline
[2] = dose: 100.0 mg/kg/injection, schedule: Q01DX001 (ip), vehicle: saline
[3] = dose: 200.0 mg/kg/injection, schedule: Q01DX001 (ip), vehicle: saline
[4] = dose: 400.0 mg/kg/injection, schedule: Q01DX001 (ip), vehicle: saline
[5] = dose: 100.0 mg/kg/injection, schedule: Q01DX009 (ip), vehicle: saline with Tween-80
[6] = dose: 200.0 mg/kg/injection, schedule: Q01DX009 (ip), vehicle: saline with Tween-80

Measured: T/C

O=C1NC(=O)c2cccc3cccc1c23
inactive: dose: 100.0 mg/kg/injection, schedule: Q01DX001 (ip), vehicle: saline with Tween-80 98 % of control | dose: 200.0 mg/kg/injection, schedule: Q01DX001 (ip), vehicle: saline with Tween-80 102 % of control | dose: 400.0 mg/kg/injection, schedule: Q01DX001 (ip), vehicle: saline with Tween-80 102 % of control

CCSC(SCC)C(C)=O
inactive: [1] 92 % of control | [2] 108 % of control | [3] 94 % of control | [4] 89 % of control

COc1c(C)c2c(c(O)c1C/C=C(\C)CCC(=O)O)C(=O)OC2
inactive: dose: 12.5 mg/kg/injection, schedule: Q01DX001 (ip), vehicle: saline 96 % of control | dose: 25.0 mg/kg/injection, schedule: Q01DX001 (ip), vehicle: saline 100 % of control | dose: 25.0 mg/kg/injection, schedule: Q01DX009 (ip), vehicle: saline 102 % of control | [1] 103 % of control | dose: 50.0 mg/kg/injection, schedule: Q01DX009 (ip), vehicle: saline 98 % of control | [2] 100 % of control | dose: 100.0 mg/kg/injection, schedule: Q01DX009 (ip), vehicle: saline 107 % of control | dose: 100.0 mg/kg/injection, schedule: Q04DX002 (ip), vehicle: Klucel (hydroxypropylcellulose) (HPC) 104 % of control | [3] 100 % of control | dose: 200.0 mg/kg/injection, schedule: Q01DX009 (ip), vehicle: saline 118 % of control | dose: 200.0 mg/kg/injection, schedule: Q04DX002 (ip), vehicle: Klucel (hydroxypropylcellulose) (HPC) 112 % of control | [4] 100 % of control | dose: 400.0 mg/kg/injection, schedule: Q01DX009 (ip), vehicle: saline 124 % of control | dose: 400.0 mg/kg/injection, schedule: Q04DX002 (ip), vehicle: Klucel (hydroxypropylcellulose) (HPC) 112 % of control

COC(CN(C)C(=O)NC1CCCCC1)OC
inactive: [5] 102 % of control | [6] 100 % of control

CCCCNC(=O)CC(C)C(=O)O (stereo unspecified)
inactive: [5] 100 % of control | [6] 98 % of control | dose: 400.0 mg/kg/injection, schedule: Q01DX009 (ip), vehicle: saline with Tween-80 100 % of control

CCN(CC)CC(=O)NCC(CCN1CCCC1)(CC(C)C)c1cccc2ccccc12 (stereo unspecified)
inactive: dose: 100.0 mg/kg/injection, schedule: Q04DX002 (ip), vehicle: saline 97 % of control | dose: 200.0 mg/kg/injection, schedule: Q04DX002 (ip), vehicle: saline 94 % of control

O=CN/N=C/c1cccc([N+](=O)[O-])c1
inactive: dose: 75.0 mg/kg/injection, schedule: Q01DX001 (ip), vehicle: saline 95 % of control | dose: 150.0 mg/kg/injection, schedule: Q01DX001 (ip), vehicle: saline 95 % of control | dose: 300.0 mg/kg/injection, schedule: Q01DX001 (ip), vehicle: saline 92 % of control
